These results are taken from paper PMC7050772 (Cellular physiology and biochemistry : international …, 2020).

The target of test [1] is T1, cytochrome P450 1A1 (CYP1A1) (Homo sapiens, UniProt P04798).
T1 sequence (P04798 1-512): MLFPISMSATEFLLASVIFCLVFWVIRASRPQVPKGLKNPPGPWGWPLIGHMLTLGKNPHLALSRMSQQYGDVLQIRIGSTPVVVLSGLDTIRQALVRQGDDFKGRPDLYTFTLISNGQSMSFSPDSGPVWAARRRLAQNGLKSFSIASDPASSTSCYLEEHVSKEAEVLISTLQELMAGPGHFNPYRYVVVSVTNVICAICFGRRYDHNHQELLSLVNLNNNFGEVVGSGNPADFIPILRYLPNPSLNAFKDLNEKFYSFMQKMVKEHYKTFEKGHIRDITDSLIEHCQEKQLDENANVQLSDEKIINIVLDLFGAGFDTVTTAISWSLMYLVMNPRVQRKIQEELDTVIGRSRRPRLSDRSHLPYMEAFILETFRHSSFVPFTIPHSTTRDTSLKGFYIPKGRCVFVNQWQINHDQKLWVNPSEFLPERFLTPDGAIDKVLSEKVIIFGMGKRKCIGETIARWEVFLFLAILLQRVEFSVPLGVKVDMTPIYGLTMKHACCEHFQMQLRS
The test can be described thus: P450-Glo Luc-CEE luminescence assay with recombinant CYP1A1 microsomes. It is filed as biochemical.

For test [2], the target named is T1, cytochrome P450 1A1 (CYP1A1). Described as above. Type of test: biochemical. The source holds these as a separate data set.

Like-named read-outs stand apart in the source and are kept apart here.

The term IC50 denotes the concentration needed to halve the response being measured. On to `NCCc1c[nH]c2ccccc12` [TRYPT, Tryptamine], for which, in test [1], the IC50 turned out to be 1.4 µM. For `NCCc1c[nH]c2ccc(O)cc12` [5-HT, Serotonin], the IC50 in test [2] came out at 1.62 µM. `O=c1cc(-c2ccccc2)oc2c1ccc1ccccc12` [α-NF, α-naphthoflavone, reference compound]: the IC50 in test [1] is 0.76 µM.
